Entries after “also recorded” stand apart in the source; their conditions may differ.
Assays:
[1] = tested on: HDAC; settings: formed from FK228 by dithiothreitol reduction in vitro; cited from earlier work
[2] = tested on: MDR1; assay: Gene re-expression by REAL-time RT-PCR in peripheral blood mononuclear cells (MDR1); type: in vivo, human; settings: hr 4 on days 1 and 8; normalized to ABL; p=0.04
Procedure: (§1) FK228 (Fujisawa, Osaka, Japan) was administered intravenously over four hours at a dose of 13.3 mg/m^2/d on days 1, 8, and 15 of a 28-day cycle. Peripheral blood mononuclear cells were obtained prior to (hour 0) and 4 hours (hour 4) and 24 hours (hour 24) after dosing on days 1 and 8 and used to evaluate histone acetylation by flow cytometry and gene re-expression by REAL-time RT-PCR. Target genes of interest include MDR1, a target of HDI-mediated upregulation, and p15^INK4B (P15), a target of DNA hypermethylation in AML.
(§2) MDR1 and p15 copy numbers were expressed as a normalized quotient of MDR1 and p15, respectively, to the housekeeping gene ABL.

[3] = tested on: H3 acetylation; assay: Histone acetylation by flow cytometry in peripheral blood mononuclear cells; type: in vivo, human
Procedure: as §1

[4] = tested on: p15INK4B (P15); assay: Gene re-expression by REAL-time RT-PCR in peripheral blood mononuclear cells (p15); type: in vivo, human; settings: normalized to ABL; p-0.01
Procedure: as §1, §2

[5] = Tolerability in Phase II AML study; type: in vivo, human; settings: AML patients, 13.3 mg/m2/d iv days 1, 8, 15 of 28-day cycle
Excerpt: (§3) Eighteen patients (median age=60 years, age range=25-77 years) with relapsed or refractory AML were enrolled in a multicenter Phase II study of depsipeptide for the treatment of AML. Patients were divided into two groups upon entry into the study: Group A (n=14), which included patients without specific chromosomal abnormalities correlated with recruitment of histone deacetylases; and Group B (n=4), which included patients with chromosomal aberrations associated with recruitment of histone deacetylases, such as t(8;21), inv 16, or t(15; 17).
as §1

[6] = tested on: HDAC; settings: cited from earlier work
[7] = tested on: bone marrow blasts; assay: Phase II study of depsipeptide in relapsed or refractory AML: anti-leukemic response; type: in vivo, human
Excerpt: as §3, §1

Structure (SMILES) | HDAC inhibition [1] | overall mean increase in MDR1 expression [2] | patients exhibiting increase H3 acetylation ([3]; 4 of 14 patients) | patients exhibiting an increase in H3 acetylation ([3]; Group B cohort (3 of 4), at 4 and/or 24 hours after dosing) | mean increase in p15 expression [4] | most common adverse effects [5] | tolerability [5] | HDAC inhibition in vivo [6] | response of patient having a t(4;21) translocation ([7]; 13.3 mg/m2/d iv days 1, 8, 15 of 28-day cycle) | objective evidence of response (complete or partial remission) or other anti-leukemic activity ([7]; Group A (n=14), patients without chromosomal abnormalities correlated with HDAC recruitment, 13.3 mg/m2/d iv over 4 h, days 1, 8, 15 of 28-day cycle) | patients exhibiting marked reduction of bone marrow blasts ([7]; Group B (n=4), chromosomal aberrations associated with HDAC recruitment, after one cycle, 13.3 mg/m2/d iv) | time to increase in bone marrow blasts following cessation of therapy ([7]; both responding Group B patients, antileukemic effect short-lived) | hematopoiesis in responding patients ([7]; responders of Group B, following the second cycle of treatment, 13.3 mg/m2/d iv) | bone marrow blast percentage in responding patients ([7]; responders with AML1 translocations (t(8;21), t(4;21)), normocellular marrow after one cycle, 13.3 mg/m2/d iv)
C/C=C1\NC(=O)[C@@H](CS)NC(=O)[C@@H](C(C)C)NC(=O)C[C@@H](/C=C/CCS)OC(=O)[C@H](C(C)C)NC1=O [FR135313] | capable of inhibiting HDAC | – | – | – | – | – | – | – | – | – | – | – | – | –
C/C=C1\NC(=O)[C@H]2CSSCC/C=C/[C@H](CC(=O)N[C@H](C(C)C)C(=O)N2)OC(=O)[C@H](C(C)C)NC1=O [FK228] | – | 41% | 28% | 75% | 91% | grade ½ nausea, vomiting, and fatigue | well tolerated | strongly inhibits HDAC | responded to the treatment | No objective evidence of response | 50% | ≤ 30 days | return to substantially normal hematopoiesis; also recorded: recovery of near-normal hematopoiesis | < 5%

— patent US20060106049A1, “Histone deacetylase inhibitors and methods of use” (The University of chicago, priority 2004, published 2006)
